Laboratory results reported in PubChem BioAssay (NCI).
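Test compounds were applied to cells in 96-well plates for 48 hours at 5 doses. Here, GI50 denotes the concentration required for 50% inhibition of growth. The concentration for full growth arrest is given as TGI.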 *1 amine or outer side, *2 acyl side, *3 side chain or, on linkers, in order; H or OH if unused. Where a SMILES comes first, the peptide text is derived from it. Bridges are numbered along the chain shown (N, C = ends). [ ]: non-standard residue; d: D form. The star is where a group is joined. Phe(3-Me) = Cc1cccc(C[C@H](N)C(=O)O)c1; NH(4-Cl-2-F-phenyl) = Fc1cc(Cl)ccc1N*; Pro(4R-Me) = C[C@H]1CN[C@H](C(=O)O)C1; Propanoyl(3-NMe2) = CN(C)CCC(=O)*; Hyp = O=C(O)[C@@H]1C[C@@H](O)CN1; aThr = C[C@H](O)[C@H](N)C(=O)O; Pip = O=C(O)[C@@H]1CCCCN1; CO = O=C([*:1])[*:2]

Columns and labels:
Experiment in all cases: NCI tumour cell line growth inhibition, 48 h
SNB-75 CNS = test system: SNB-75 CNS
K-562 leukemia = test system: K-562 leukemia
DU-145 prostate = test system: DU-145 prostate
UACC-257 melanoma = test system: UACC-257 melanoma
HCT-15 colon = test system: HCT-15 colon
A549 NSCLC = test system: A549 NSCLC
MOLT-4 leukemia = test system: MOLT-4 leukemia
OVCAR-4 ovarian = test system: OVCAR-4 ovarian
SK-MEL-28 melanoma = test system: SK-MEL-28 melanoma
HS 578T breast = test system: HS 578T breast

| Structure (SMILES) | GI50 (SNB-75 CNS) | TGI (SNB-75 CNS) | GI50 (K-562 leukemia) | GI50 (DU-145 prostate) | TGI (DU-145 prostate) | GI50 (UACC-257 melanoma) | TGI (UACC-257 melanoma) | GI50 (HCT-15 colon) | TGI (HCT-15 colon) | GI50 (A549 NSCLC) | TGI (A549 NSCLC) | GI50 (MOLT-4 leukemia) | TGI (MOLT-4 leukemia) | GI50 (OVCAR-4 ovarian) | TGI (OVCAR-4 ovarian) | GI50 (SK-MEL-28 melanoma) | TGI (SK-MEL-28 melanoma) | GI50 (HS 578T breast) | TGI (HS 578T breast) | TGI (K-562 leukemia) |
| --- | --- | --- | --- | --- | --- | --- | --- | --- | --- | --- | --- | --- | --- | --- | --- | --- | --- | --- | --- | --- |
| COc1cc2c3c(c4c5ccccc5[nH]c4c2c(OC)c1OC)C(=O)N(CCN1CCCCC1)C3=O | 2.47 µM | 7.19 µM | 0.71 µM | 1.22 µM | 2.54 µM | 2.79 µM | 9.62 µM | 0.498 µM | 2.07 µM | 0.611 µM | 2.3 µM | 0.536 µM | 9.23 µM | 1.26 µM | 3.14 µM | 1.74 µM | 3.32 µM | 1.84 µM | 4.59 µM | – |
| COc1ccc(CNc2nc(NCc3ccc(OC)cc3)c3n[nH]c(C(C)C)c3n2)cc1 | 0.406 µM | 5.32 µM | 3.13 µM | 11.4 µM | 36.5 µM | 16.4 µM | 30.8 µM | 5.09 µM | 28.8 µM | 7.25 µM | > 100 µM | 3.88 µM | 14.4 µM | 1.76 µM | 17.5 µM | 2.13 µM | 16 µM | 2.97 µM | 26 µM | 11.7 µM |
| CC(=O)Nc1sc2c(c1-c1nc3ccccc3s1)CNC2 | 1.81 µM | 9.52 µM | 2.23 µM | 2.93 µM | > 50 µM | 5.41 µM | 14.8 µM | 1.56 µM | 8.89 µM | 2.26 µM | 25 µM | 2.03 µM | 9.2 µM | 3.08 µM | 24.8 µM | 2.94 µM | 9.93 µM | 7.05 µM | 22.6 µM | 11.1 µM |
| Nc1nc2c(c3cnccc13)C(c1cccc(Cl)c1)Cc1cnccc1-2 (stereo unspecified) | 0.38 µM | 17.8 µM | 0.338 µM | 0.309 µM | 4.65 µM | 4.36 µM | 22.5 µM | 0.388 µM | 7.93 µM | 0.552 µM | 10.6 µM | 0.494 µM | 17.3 µM | 2.23 µM | 41 µM | 2.6 µM | 20.6 µM | 0.466 µM | 32.9 µM | 28.7 µM |
| O=C(O)/C=C\C(=O)Nc1ccc2c(c1)C(=O)c1cc(F)ccc1-2 | – | > 100 µM | – | – | > 100 µM | – | > 100 µM | – | > 100 µM | – | > 100 µM | – | > 100 µM | – | > 100 µM | – | > 100 µM | – | > 100 µM | > 100 µM |
| O=C1c2cccnc2C(=O)c2c1c(C(=O)OCCN1CCOCC1)c1ccccn21 | < 0.01 µM | 0.572 µM | 0.0198 µM | < 0.0175 µM | 1.31 µM | 0.0354 µM | 0.592 µM | – | – | 0.0205 µM | 1.17 µM | 0.0938 µM | 3.22 µM | 1.07 µM | 5.29 µM | 0.0458 µM | 2.12 µM | 0.0243 µM | 10.8 µM | – |
| CC[C@@]1(O)C(=O)OCc2c1cc1n(c2=O)Cc2c-1nc1ccccc1c2/C=N/OC(C)(C)C | < 0.0109 µM | 0.978 µM | 0.0189 µM | < 0.01 µM | 13.5 µM | 0.0666 µM | 1.32 µM | 0.082 µM | 25.7 µM | < 0.01 µM | 1.52 µM | < 0.01 µM | 0.742 µM | 0.311 µM | 13.9 µM | 0.372 µM | 9.07 µM | 1.13 µM | > 85.5 µM | > 100 µM |
| Cc1cccc(C[C@H](NC(=O)Nc2ccc(Cl)cc2F)C(=O)N[C@@H]2C(=O)N3C[C@H](OC(=O)CCN(C)C)C[C@H]3C(=O)N3CCCC[C@H]3C(=O)N[C@@H](C)C(=O)N3C[C@H](C)C[C@H]3C(=O)O[C@H]2C)c1 ({NH(4-Cl-2-F-phenyl)-CO}-[Phe(3-Me)][aThr][Hyp](Propanoyl(3-NMe2))[Pip]A[Pro(4R-Me)]; ester 2-C) | 1.26 µM | 9.44 µM | 0.3 µM | 0.514 µM | 5.86 µM | 0.385 µM | 2.14 µM | 1.98 µM | 4.34 µM | 0.526 µM | 11.2 µM | 0.811 µM | 4.65 µM | 0.334 µM | 2.06 µM | 0.706 µM | 2.1 µM | 0.474 µM | 3.82 µM | – |
| CCN(CC)CC(O)C1CCC(c2ccccc2)CC1 (stereo unspecified) | – | 64.4 µM | – | – | > 100 µM | – | 50.5 µM | – | 42.3 µM | – | > 100 µM | – | > 100 µM | – | – | – | 48.9 µM | – | > 100 µM | > 100 µM |
| C=C1N(C)c2ccc(Cl)cc2C1(C)C | 4.25 µM | 77.3 µM | 3.75 µM | 6.66 µM | > 100 µM | 6.84 µM | 60.5 µM | 29.1 µM | > 100 µM | 17.4 µM | > 100 µM | 6.94 µM | 55 µM | 4.83 µM | > 100 µM | 19.7 µM | > 100 µM | 6.34 µM | > 100 µM | > 100 µM |
| O=[N+]([O-])c1ccc(-c2cn(-c3ccc(Cl)cc3)cn2)cc1 | – | 35.2 µM | – | – | > 100 µM | – | > 100 µM | – | > 100 µM | – | > 100 µM | – | > 100 µM | – | – | – | > 100 µM | – | > 100 µM | > 100 µM |
| O=C(CCl)Nc1ccc2c(c1)C(=O)c1ccc(NC(=O)CCl)cc1C2=O | 1.01 µM | 2.22 µM | 0.319 µM | 1.41 µM | 3.45 µM | 1.8 µM | 4.87 µM | 0.183 µM | 0.469 µM | 2.79 µM | > 100 µM | 0.241 µM | 2.13 µM | – | – | 0.321 µM | 1.33 µM | 1.29 µM | 9.57 µM | > 100 µM |
| COc1cc2c3c(n(CCCCl)c(=O)c2cc1OC)-c1ccc(C#N)cc1C3=O | 4 µM | 15.8 µM | > 100 µM | 10.7 µM | > 100 µM | 54.9 µM | > 100 µM | 3.31 µM | 20.5 µM | 29.5 µM | > 100 µM | 1.68 µM | > 100 µM | 88.7 µM | > 100 µM | > 100 µM | > 100 µM | 3.32 µM | 21.9 µM | > 100 µM |
